Measured values from ChEMBL document CHEMBL5715954, “Silencing c-Myc translation as a therapeutic strategy through targeting PI3Kδ and CK1ε in hematological malignancies” (Blood, 2017).

Tests used:
Set-up in all cases: scale not given: the % may be the effect or the level left
[1] = biological target: T1, TGF-beta receptor type-1 (Homo sapiens) (UniProt P36897); assay: Inhibition of human ALK5 assessed as enzyme activity at 1 uM using casein as substrate preincubated for 20 mins followed by [gamma-33P]-ATP addition and measured after 120 mins by radiometric Hot-SpotSM Kinase assay relative to control
T1 sequence (whole entry): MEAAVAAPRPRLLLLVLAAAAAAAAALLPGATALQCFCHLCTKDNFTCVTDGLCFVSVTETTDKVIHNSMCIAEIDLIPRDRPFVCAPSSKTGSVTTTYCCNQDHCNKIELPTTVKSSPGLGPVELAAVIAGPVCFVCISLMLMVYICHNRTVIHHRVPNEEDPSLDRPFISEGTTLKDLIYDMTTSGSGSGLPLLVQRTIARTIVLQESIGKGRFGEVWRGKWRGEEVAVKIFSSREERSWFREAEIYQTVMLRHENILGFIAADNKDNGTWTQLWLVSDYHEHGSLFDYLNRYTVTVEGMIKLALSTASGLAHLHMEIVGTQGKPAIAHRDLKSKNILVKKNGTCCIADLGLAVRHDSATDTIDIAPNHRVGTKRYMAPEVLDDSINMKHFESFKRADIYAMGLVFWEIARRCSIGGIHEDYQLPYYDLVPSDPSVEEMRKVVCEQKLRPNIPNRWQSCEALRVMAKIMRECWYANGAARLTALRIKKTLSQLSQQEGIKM

[2] = biological target: T2, Mitogen-activated protein kinase kinase kinase 5 (Homo sapiens) (UniProt Q99683); assay: Inhibition of human ASK1 assessed as enzyme activity at 1 uM using myelin basic protein as substrate preincubated for 20 mins followed by [gamma-33P]-ATP addition and measured after 120 mins by radiometric Hot-SpotSM Kinase assay relative to control
T2 sequence (whole entry): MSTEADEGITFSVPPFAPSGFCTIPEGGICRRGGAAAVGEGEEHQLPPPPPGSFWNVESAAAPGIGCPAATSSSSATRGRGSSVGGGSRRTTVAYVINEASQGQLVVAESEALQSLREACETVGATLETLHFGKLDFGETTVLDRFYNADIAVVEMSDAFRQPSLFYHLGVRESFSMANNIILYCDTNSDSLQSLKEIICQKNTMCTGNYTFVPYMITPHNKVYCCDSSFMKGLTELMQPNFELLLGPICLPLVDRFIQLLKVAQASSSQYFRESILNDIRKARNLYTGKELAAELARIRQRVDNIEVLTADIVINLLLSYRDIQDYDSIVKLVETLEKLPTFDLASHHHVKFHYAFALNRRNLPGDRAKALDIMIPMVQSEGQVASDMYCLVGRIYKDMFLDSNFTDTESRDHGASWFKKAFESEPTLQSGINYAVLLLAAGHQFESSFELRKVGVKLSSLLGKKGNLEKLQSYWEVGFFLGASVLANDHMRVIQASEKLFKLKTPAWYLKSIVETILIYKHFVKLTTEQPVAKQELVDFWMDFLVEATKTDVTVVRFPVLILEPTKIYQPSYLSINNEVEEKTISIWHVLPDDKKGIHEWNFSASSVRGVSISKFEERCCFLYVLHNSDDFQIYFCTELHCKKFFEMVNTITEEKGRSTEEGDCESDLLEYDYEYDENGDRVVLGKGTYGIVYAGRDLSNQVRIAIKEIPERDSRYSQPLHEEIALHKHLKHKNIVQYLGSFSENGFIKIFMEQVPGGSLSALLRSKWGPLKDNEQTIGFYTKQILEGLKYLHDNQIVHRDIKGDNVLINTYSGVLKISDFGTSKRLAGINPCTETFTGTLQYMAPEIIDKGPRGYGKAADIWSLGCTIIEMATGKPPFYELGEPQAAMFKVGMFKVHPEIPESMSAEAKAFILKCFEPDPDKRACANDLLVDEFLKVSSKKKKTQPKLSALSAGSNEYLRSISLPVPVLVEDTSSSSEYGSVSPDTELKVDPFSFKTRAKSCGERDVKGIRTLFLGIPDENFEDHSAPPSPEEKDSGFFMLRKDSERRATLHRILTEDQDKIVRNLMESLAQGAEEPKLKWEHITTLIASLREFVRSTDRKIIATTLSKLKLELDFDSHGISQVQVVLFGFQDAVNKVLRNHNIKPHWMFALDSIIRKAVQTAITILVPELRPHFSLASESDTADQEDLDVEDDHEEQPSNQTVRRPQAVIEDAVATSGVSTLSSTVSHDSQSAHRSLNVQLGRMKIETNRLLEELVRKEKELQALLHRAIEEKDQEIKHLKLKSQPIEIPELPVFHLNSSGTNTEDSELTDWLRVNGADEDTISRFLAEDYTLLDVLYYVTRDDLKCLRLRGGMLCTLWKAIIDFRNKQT

[3] = biological target: Serine/threonine-protein kinase B-raf (Homo sapiens) (UniProt P15056); assay: Inhibition of human BRAF assessed as enzyme activity at 1 uM using MEK1 (K97R) as substrate preincubated for 20 mins followed by [gamma-33P]-ATP addition and measured after 120 mins by radiometric Hot-SpotSM Kinase assay relative to control
Sequence of Serine/threonine-protein kinase B-raf (Homo sapiens) (P15056 whole entry): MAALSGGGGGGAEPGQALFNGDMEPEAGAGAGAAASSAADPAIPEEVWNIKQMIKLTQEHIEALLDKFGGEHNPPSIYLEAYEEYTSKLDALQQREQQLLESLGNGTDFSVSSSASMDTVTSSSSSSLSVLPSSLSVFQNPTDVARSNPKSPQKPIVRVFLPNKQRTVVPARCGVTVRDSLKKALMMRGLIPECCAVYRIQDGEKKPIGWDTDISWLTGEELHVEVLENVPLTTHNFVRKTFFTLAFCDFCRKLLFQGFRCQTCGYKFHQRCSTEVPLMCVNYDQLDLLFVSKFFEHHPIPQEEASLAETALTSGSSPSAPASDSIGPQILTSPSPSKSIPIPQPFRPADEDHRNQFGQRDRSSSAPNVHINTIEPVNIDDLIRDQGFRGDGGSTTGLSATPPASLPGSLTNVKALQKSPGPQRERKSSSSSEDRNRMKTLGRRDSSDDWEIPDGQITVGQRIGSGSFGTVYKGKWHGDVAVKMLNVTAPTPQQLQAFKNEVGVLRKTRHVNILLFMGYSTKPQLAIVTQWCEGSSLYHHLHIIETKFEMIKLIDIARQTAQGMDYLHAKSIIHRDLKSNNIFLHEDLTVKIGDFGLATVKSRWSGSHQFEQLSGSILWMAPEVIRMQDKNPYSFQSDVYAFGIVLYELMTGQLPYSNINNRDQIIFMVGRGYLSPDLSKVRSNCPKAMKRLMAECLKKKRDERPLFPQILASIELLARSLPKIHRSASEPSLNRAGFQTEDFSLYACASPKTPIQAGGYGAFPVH

[4] = biological target: Ephrin type-A receptor 2 (Homo sapiens) (UniProt P29317); assay: Inhibition of human EPHA2 assessed as enzyme activity at 1 uM using poly[Glu:Tyr] (4:1) as substrate preincubated for 20 mins followed by [gamma-33P]-ATP addition and measured after 120 mins by radiometric Hot-SpotSM Kinase assay relative to control
Sequence of Ephrin type-A receptor 2 (Homo sapiens) (P29317 whole entry): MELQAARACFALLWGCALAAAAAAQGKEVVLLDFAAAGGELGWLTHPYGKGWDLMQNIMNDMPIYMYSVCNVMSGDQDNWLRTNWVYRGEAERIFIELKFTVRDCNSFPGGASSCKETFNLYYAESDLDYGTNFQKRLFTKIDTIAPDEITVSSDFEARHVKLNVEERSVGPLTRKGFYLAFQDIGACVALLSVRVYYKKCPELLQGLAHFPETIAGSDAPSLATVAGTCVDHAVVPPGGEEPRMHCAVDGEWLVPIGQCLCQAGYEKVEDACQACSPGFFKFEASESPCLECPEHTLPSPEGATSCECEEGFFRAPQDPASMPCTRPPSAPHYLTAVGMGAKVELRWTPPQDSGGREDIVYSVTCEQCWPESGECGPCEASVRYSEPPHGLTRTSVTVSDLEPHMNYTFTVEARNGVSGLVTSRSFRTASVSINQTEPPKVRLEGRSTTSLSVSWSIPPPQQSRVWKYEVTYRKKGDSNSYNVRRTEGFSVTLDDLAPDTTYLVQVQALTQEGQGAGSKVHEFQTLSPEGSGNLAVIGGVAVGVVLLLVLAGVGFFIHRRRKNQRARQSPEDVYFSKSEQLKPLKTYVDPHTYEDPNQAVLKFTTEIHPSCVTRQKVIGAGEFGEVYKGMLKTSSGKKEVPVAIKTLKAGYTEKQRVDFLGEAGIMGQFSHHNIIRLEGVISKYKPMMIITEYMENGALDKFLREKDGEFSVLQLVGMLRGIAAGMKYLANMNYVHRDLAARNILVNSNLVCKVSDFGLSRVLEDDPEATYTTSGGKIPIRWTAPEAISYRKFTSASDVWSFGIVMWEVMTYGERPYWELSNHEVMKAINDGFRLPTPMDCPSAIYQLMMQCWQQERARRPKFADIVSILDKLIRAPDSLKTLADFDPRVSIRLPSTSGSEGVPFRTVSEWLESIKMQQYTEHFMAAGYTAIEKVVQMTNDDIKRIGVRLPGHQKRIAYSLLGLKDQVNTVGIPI

[5] = biological target: Fibroblast growth factor receptor 4 (Homo sapiens) (UniProt P22455); assay: Inhibition of human FGFR4 assessed as enzyme activity at 1 uM using poly[Glu:Tyr] (4:1) as substrate preincubated for 20 mins followed by [gamma-33P]-ATP addition and measured after 120 mins by radiometric Hot-SpotSM Kinase assay relative to control
Sequence of Fibroblast growth factor receptor 4 (Homo sapiens) (P22455 22-802 limits assumed): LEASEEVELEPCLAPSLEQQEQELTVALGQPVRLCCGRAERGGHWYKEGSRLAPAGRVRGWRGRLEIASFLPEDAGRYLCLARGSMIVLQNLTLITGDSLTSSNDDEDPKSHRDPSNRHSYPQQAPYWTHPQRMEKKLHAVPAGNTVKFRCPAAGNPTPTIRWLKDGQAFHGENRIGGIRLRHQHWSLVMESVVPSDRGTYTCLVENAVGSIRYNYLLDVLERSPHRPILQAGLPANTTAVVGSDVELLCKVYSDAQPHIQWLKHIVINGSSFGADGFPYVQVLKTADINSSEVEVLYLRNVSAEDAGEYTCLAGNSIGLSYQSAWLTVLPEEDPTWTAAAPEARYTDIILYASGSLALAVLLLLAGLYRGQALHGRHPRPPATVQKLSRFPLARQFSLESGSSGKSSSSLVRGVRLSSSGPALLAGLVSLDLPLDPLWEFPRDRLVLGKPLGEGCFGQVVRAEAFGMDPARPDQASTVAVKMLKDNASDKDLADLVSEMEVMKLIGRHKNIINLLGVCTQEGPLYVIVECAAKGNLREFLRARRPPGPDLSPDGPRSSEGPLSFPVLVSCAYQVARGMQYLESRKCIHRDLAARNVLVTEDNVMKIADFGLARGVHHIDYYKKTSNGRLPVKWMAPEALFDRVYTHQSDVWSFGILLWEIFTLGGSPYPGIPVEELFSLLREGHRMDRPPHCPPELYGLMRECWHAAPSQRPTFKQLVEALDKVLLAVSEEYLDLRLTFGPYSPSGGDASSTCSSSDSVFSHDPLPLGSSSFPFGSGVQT

[6] = biological target: Serine/threonine-protein kinase PLK2 (Homo sapiens) (UniProt Q9NYY3); assay: Inhibition of human PLK2 assessed as enzyme activity at 1 uM using casein as substrate preincubated for 20 mins followed by [gamma-33P]-ATP addition and measured after 120 mins by radiometric Hot-SpotSM Kinase assay relative to control
Sequence of Serine/threonine-protein kinase PLK2 (Homo sapiens) (Q9NYY3 whole entry, looked up): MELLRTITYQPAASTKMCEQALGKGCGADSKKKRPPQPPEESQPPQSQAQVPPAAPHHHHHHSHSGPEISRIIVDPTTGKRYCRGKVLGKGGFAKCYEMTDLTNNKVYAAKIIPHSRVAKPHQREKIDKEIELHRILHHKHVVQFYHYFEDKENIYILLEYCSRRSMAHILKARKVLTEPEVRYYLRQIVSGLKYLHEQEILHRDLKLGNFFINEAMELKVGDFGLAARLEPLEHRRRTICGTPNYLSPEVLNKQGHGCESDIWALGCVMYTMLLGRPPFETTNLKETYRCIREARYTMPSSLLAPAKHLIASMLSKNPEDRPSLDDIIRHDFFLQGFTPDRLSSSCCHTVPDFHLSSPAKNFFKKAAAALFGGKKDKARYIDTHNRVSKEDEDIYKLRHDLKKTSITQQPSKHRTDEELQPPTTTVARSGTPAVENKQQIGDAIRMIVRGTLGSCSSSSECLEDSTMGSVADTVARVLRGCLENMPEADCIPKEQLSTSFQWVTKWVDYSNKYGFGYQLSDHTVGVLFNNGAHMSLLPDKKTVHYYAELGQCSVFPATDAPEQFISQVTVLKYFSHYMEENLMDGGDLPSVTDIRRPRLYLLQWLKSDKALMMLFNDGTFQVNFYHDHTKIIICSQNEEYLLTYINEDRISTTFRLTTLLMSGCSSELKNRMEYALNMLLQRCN

[7] = biological target: SRSF protein kinase 1 (Homo sapiens) (UniProt Q96SB4); assay: Inhibition of human SRPK1 assessed as enzyme activity at 1 uM using GRSRSRSRSR as substrate preincubated for 20 mins followed by [gamma-33P]-ATP addition and measured after 120 mins by radiometric Hot-SpotSM Kinase assay relative to control
Sequence of SRSF protein kinase 1 (Homo sapiens) (Q96SB4 whole entry): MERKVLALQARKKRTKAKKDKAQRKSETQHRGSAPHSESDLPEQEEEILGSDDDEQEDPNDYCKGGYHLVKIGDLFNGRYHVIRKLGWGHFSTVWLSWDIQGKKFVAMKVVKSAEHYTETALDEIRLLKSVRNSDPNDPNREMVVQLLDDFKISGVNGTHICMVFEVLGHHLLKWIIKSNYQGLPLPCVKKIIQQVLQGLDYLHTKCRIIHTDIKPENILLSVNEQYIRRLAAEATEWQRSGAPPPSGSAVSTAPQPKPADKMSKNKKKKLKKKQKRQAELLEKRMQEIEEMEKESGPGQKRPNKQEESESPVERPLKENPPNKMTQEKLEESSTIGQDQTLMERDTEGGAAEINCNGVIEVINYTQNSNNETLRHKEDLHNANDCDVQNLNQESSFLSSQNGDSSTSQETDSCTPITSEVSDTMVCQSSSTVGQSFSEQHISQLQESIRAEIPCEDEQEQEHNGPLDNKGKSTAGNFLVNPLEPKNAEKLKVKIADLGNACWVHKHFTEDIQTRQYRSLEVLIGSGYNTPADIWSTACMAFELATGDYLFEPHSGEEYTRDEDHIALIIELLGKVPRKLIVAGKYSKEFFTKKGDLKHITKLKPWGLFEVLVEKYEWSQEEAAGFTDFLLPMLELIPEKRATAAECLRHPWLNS

[8] = biological target: Non-receptor tyrosine-protein kinase TYK2 (Homo sapiens) (UniProt P29597); assay: Inhibition of human TYK2 assessed as enzyme activity at 1 uM using KKSRGDYMTMQIG as substrate preincubated for 20 mins followed by [gamma-33P]-ATP addition and measured after 120 mins by radiometric Hot-SpotSM Kinase assay relative to control
Sequence of Non-receptor tyrosine-protein kinase TYK2 (Homo sapiens) (P29597 whole entry): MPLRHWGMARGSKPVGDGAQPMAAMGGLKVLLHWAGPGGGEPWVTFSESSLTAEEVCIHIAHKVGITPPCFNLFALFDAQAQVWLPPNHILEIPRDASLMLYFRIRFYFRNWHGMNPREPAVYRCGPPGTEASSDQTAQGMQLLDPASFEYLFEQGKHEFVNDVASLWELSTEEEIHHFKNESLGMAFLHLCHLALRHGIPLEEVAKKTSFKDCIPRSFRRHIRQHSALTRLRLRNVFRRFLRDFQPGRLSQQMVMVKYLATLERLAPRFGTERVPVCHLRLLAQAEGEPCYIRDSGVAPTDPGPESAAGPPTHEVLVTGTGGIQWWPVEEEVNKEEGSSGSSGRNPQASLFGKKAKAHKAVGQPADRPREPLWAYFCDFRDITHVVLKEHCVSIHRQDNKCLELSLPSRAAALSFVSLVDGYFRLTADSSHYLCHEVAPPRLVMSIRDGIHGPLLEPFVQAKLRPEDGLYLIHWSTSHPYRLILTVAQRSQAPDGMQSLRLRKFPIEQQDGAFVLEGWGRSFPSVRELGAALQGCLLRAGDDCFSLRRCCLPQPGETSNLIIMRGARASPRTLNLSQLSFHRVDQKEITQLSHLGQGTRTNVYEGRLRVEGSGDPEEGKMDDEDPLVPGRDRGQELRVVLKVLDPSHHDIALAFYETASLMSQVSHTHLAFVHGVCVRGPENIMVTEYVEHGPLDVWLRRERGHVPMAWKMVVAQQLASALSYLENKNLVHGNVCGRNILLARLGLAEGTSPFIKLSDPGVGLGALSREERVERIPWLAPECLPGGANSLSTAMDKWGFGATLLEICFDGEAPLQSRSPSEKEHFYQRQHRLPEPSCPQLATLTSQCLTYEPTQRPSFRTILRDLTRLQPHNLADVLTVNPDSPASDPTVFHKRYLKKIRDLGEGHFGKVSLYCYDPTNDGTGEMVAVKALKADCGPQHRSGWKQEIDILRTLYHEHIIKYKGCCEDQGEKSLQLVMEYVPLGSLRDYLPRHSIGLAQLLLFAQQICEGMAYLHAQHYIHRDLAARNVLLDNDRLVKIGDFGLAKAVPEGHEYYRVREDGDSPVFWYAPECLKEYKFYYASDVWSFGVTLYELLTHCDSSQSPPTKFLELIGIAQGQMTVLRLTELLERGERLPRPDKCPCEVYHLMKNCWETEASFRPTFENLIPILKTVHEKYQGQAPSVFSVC

Row | SMILES | Activity [1] [%] | Activity [2] [%] | Activity [3] [%] | Activity [4] [%] | Activity [5] [%] | Activity [6] [%] | Activity [7] [%] | Activity [8] [%]
1 | CC[C@H](Nc1ncnc2[nH]cnc12)c1nc2cccc(F)c2c(=O)n1-c1ccccc1 | 108 | 102 | 87.6 | 97 | 97.3 | 102 | 92.7 | 96.6
2 | C[C@H](Nc1ncnc2nc[nH]c12)c1cc2cccc(Cl)c2c(=O)n1-c1ccccc1 | 108 | 97.7 | 85.9 | 96.3 | 94.5 | 98.6 | 94 | 96.3
3 | CC(C)Oc1ccc(-c2nn([C@@H](C)c3oc4ccc(F)cc4c(=O)c3-c3cccc(F)c3)c3ncnc(N)c23)cc1F [UMBRALISIB] | 109 | 98.4 | 92.2 | 97.2 | 93.2 | 99.8 | 90.6 | 102
